This is an account of results in publication PMC6735293, “Design, synthesis, and biological evaluation of novel androst-17β-amide structurally related compounds as dual 5α-reductase inhibitors and androgen receptor antagonists” (Journal of Enzyme Inhibition and Medicinal Chemistry, 2019).

Where two headings read alike, the source gives them in different places.

One data set has as its system 22RV1 cells. The data set is described as follows: MTT anti-proliferation assay, T-stimulated 22RV1. The format is cell-based, Human. The following applies: for Effect on cell viability of T-treated 22RV1 cells: different concentrations of compound with 0.1 μM T, Figure 3. On the procedure:
Human prostate carcinoma 22RV1 (CRL-2505, ATCC) and PC-3 (CRL-1435, ATCC) cells were cultured in RPMI-1640 medium (Invitrogen), supplemented with 10% (v/v) foetal calf serum (FCS) (Invitrogen), 1% (v/v), penicillin and streptomycin (Invitrogen) at 37 °C with 5% CO2 in a humidified atmosphere. Fresh medium was given every second day and on the day before the experiments were done. Cells were passaged at preconfluent densities, using a solution containing 0.05% trypsin.
The anti-cancer activity in vitro was measured using the MTT assay. Exponentially growing cells were harvested and plated in 96-well plates at a concentration of 1 × 10^4 cells/well. After 24 h incubation at 37 °C under a humidified 5% CO2 to allow cell attachment, the cells in the wells were respectively treated with target compounds at various concentrations for 48 h. […] A solution of 3–(4,5-dimethylthizao1-2-y1)-2,5-diphenyltetrazolium bromide (MTT), was prepared at 5 mg/ml in phosphate buffered saline (PBS: 1.5 mM KH2PO4, 6.5 mM Na2HPO4, 137 mM NaCl, 2.7 mM KCl; pH 7.4). Of this solution 20 µl was added to each well. After incubation for 4 h at 37 °C in a humidified incubator with 5% CO2, the medium/MTT mixtures were removed, and the formazan crystals formed by the mitochondrial dehydrogenase activity of vital cells were dissolved in 100 µl of DMSO per well. The absorbance of the wells was read with a microplate reader at 570 nm. Effects of the drug cell viability were calculated using cell treated with DMSO as control.
The anti-proliferative activities were firstly evaluated against 22RV1 stimulated by 0.1 µM T or not. […] Although androst[3,2-c]pyrazoleis common in anabolic steroid, luckily these derivatives shown no androgen agonistic activity. The phenethylamino substituted compounds (7d, 8d, and 9d) and piperidine substituted compounds (7b, 8b, and 9b) were more efficient than others. […] As presented in Figure 3, 0.1 µm of T was selectedas the most adequate to induce proliferation of 22RV1 cells. […] Compound 9d caused a much more significant decrease in cell viability for all concentrations than flutamide. […]

Data set [1] has as its target T1, 5α-reductase type 1 isozyme (Rattus norvegicus, UniProt P24008).
T1 sequence (P24008 1-259): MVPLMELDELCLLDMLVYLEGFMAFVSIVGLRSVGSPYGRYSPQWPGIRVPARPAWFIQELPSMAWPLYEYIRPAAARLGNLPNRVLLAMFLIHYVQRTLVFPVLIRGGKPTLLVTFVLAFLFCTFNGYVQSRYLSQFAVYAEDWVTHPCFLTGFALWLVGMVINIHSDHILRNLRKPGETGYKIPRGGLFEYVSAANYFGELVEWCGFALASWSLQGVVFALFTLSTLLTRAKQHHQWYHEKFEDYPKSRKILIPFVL
Description: Enzyme inhibition test, 5α-reductase type 1 (pH 6.6). The format is biochemical. On the procedure:
(§1) Female rats were sacrificed and liver were taken within 5 min. All the following steps were performed at 0–4 °C. 1 g liver was cut into 3 mm pieces and added to 3 times volume of PBS. The tissue was homogenized and centrifuged at 10,000 g for 30 min. The supernatant was collected and centrifuged repeatedly at 100,000 for 1 h. The pellet obtained was resuspended in phosphate buffer (contained 30% glycerol, 1:3 v/v) and stored at −70 °C. The incubation mixture contained 50 µL enzyme solution, 6 µL NADPH (80 µM), 6 µL T (20 µM), and 108 µL buffer with or without test compound. The negative control contained 50 µL enzyme solution, 6 µL NADPH (80 µM) and 114 µL buffer. The incubation was carried out for 30 min at 37 °C. The fluorescence decay rate was tested in 10 min at 37 °C.
(§2) The inhibitory activities of the synthesized compounds were then assessed towards the 5α-reductase 1 and 2 isozymes, respectively. Finasteride was used as positive control.

Data set [2] concerns the target T2, 5α-reductase type 2 isozyme (Rattus norvegicus, UniProt P31214).
T2 sequence (P31214 1-254): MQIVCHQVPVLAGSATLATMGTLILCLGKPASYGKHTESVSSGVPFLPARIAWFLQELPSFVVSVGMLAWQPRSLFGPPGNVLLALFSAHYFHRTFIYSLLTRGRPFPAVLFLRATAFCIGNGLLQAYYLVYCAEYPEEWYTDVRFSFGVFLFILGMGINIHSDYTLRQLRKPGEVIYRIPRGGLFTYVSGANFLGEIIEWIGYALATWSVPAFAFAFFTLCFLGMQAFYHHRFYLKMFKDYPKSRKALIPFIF
Description: Enzyme inhibition test, 5α-reductase type 2 (pH 5.5). The format is biochemical. On the procedure: as §1, §2

Setting [3] is: 1 μM compound, pH 6.6, rat liver enzyme preparation, read-out: Type 1 (pH 6.6) Inh% (1 μM).
The mark [4] stands for this setting: 1 μM compound, pH 5.5, rat liver enzyme preparation, read-out: Type 2 (pH 5.5) Inh% (1μM).
The mark [5] stands for this setting: pH 6.6, rat liver enzyme preparation, read-out: Type 1 (pH 6.6) IC50.
Where [6] appears, read: pH 5.5, read-out: Type 2 (pH 5.5) Inh% (1μM).
Where [7] appears, read: pH 6.6, read-out: Type 1 (pH 6.6) Inh% (1 μM).

For `CC(C)C(=O)Nc1ccc([N+](=O)[O-])c(C(F)(F)F)c1` [flutamide, reference compound], in the data set on 22RV1 cells, the “Effect on cell viability of T-treated 22RV1 cells” value is on record as “inhibited cell proliferation in a dose-dependent manner”.

Compound `CC(C)CNC(=O)[C@H]1CCC2C3CCC4=CC(=O)/C(=C\O)C[C@]4(C)C3CC[C@@]21C` (stereo partly drawn) [Compound 7a, 2-hydroxymethylene-17β-(N-isobutyl-carboxamide)-androst-4-ene-3-one] had a melting point of 152 to 158 °C. The inhibition at 1 µM in data set [1] (setting [3]) turned out to be 25 ± 9.68%. Besides, in data set [2] (setting [4]), the inhibition at 1 µM turned out to be 24.2 ± 1.13%.

The compound `C=C1C[C@@]2(C)C(=CC1=O)CCC1C2CC[C@@]2(C)C1CC[C@@H]2C(=O)NCCc1ccc(OC)c(OC)c1` (stereo partly drawn) [Compound 8d, 2-methylene-17β-(N-(3,4-dimethoxyphenethyl)-carboxamide)-androst-4-ene-3-one] gave a melting point of 74 to 78 °C. In data set [1] (setting [3]), the inhibition at 1 µM turned out to be 24.8 ± 9.02%. In data set [2] (setting [4]), the inhibition at 1 µM was 26.1 ± 10.3%.

On to `C[C@]12Cc3c[nH]nc3C=C1CCC1C2CC[C@@]2(C)C1CC[C@@H]2C(=O)N1CCCCC1` (stereo partly drawn) [Compound 9b, 17β-(Piperidine-1-carbonyl)-androst[3,2-c]pyrazole-4-ene], for which the values for the inhibition at 1 µM in data set [1] (setting [3]) and in data set [2] (setting [4]) were 59.2 ± 2.28% and 49.6 ± 5.75%, respectively. The IC50 in data set [1] (setting [5]) was 630 ± 140 nM.

The compound `CCN(CC)C(=O)[C@H]1CCC2C3CCC4=CC(=O)/C(=C\O)C[C@]4(C)C3CC[C@@]21C` (stereo partly drawn) [Compound 7c, 2-hydroxymethylene-17β-(N,N-diethy-carboxamide)-androst-4-ene-3-one] had a melting point of 153 to 159 °C. Moreover, the inhibition at 1 µM in data set [1] (setting [3]) amounted to 27.9 ± 4.01%. Further, the inhibition at 1 µM in data set [2] (setting [4]) amounted to 24.5 ± 8.47%.

`C[C@]12CC[C@H]3[C@@H](CCC4=CC(=O)C(=CO)C[C@@]43C)[C@@H]1CC[C@@H]2C(=O)N1CCCCC1` [Compound 7b, 2-hydroxymethylene-17β-(piperidine-1-carbonyl)-androst-4-ene-3-one] gave a melting point of 105 to 110 °C. Besides, the inhibition at 1 µM in data set [1] (setting [3]) came out at 52.2 ± 12.3%. Besides, the inhibition at 1 µM in data set [2] (setting [4]) was found to be 49.9 ± 3.08%.

Turning to `CC(C)(C)NC(=O)[C@H]1CC[C@H]2[C@@H]3CC[C@H]4NC(=O)C=C[C@]4(C)[C@H]3CC[C@]12C` [Finasteride, finasteride, reference compound], the inhibition at 1 µM turned out to be 73.7 ± 4.22% in data set [1] (setting [3]) and 70 ± 4.12% in data set [2] (setting [6]).

The compound `C[C@]12CC[C@H]3[C@@H](CCC4=CC(=O)C(=CO)C[C@@]43C)[C@@H]1CC[C@@H]2C(=O)NC1CC1` [Compound 7e, 2-hydroxymethylene-17β-(N-cyclopropylamino-carbonyl)-androst-4-ene-3-one] came in with a melting point of 125 to 130 °C. Moreover, the inhibition at 1 µM in data set [1] (setting [3]) is 54.7 ± 5.94%. Besides, in data set [2] (setting [4]), the inhibition at 1 µM came out at 45.8 ± 9.86%.

`C=C1C[C@@]2(C)C(=CC1=O)CCC1C2CC[C@@]2(C)C1CC[C@@H]2C(=O)NCC(C)C` (stereo partly drawn) [Compound 8a, 2-methylene-17β-(N-isobutyl-carboxamide)-androst-4-ene-3-one] had a melting point of 168 to 175 °C. In addition, in data set [1] (setting [3]), the inhibition at 1 µM came to 31.1 ± 6.49%. For the same compound, the inhibition at 1 µM in data set [2] (setting [4]) turned out to be 19.9 ± 12.9%.

On to `COc1ccc(CCNC(=O)[C@H]2CCC3C4CCC5=Cc6n[nH]cc6C[C@]5(C)C4CC[C@@]32C)cc1OC` (stereo partly drawn) [Compound 9d, 17β-(N-(3,4-dimethoxyphenethyl)-carboxamide)-androst[3,2-c]pyrazole-4-ene], for which the IC50 turned out to be 8850 nM in the data set on 22RV1 cells (Homo sapiens, 22Rv1, 48 h, read-out: IC50 anti-proliferative activity against 22RV1, T-stimulated group) and 90 ± 20 nM in data set [1]. Further, in the data set with 22RV1 cells, the “Effect on cell viability of T-treated 22RV1 cells” value is “inhibited cell proliferation in a dose-dependent manner”. Also, the inhibition at 1 µM was found to be 80.1 ± 6.73% in data set [1] (setting [7]) and 71.9 ± 3.4% in data set [2] (setting [6]).

`C[C@]12Cc3c[nH]nc3C=C1CCC1C2CC[C@@]2(C)C1CC[C@@H]2C(=O)NC1CC1` (stereo partly drawn) [Compound 9e, 17β-(N-cyclopropylamino-carbonyl)-androst[3,2-c]pyrazole-4-ene] had an IC50 in data set [1] of 230 ± 90 nM. Besides, the results for the inhibition at 1 µM in data set [1] (setting [7]) and in data set [2] (setting [6]) were 70.8 ± 9.74% and 79.4 ± 2.47%, respectively.

`C=C1C[C@@]2(C)C(=CC1=O)CC[C@H]1[C@@H]3CC[C@H](C(=O)NC4CC4)[C@@]3(C)CC[C@@H]12` [Compound 8e, 2-methylene-17β-(N-cyclopropylamino-carbonyl)-androst-4-ene-3-one] registered a melting point of 135 to 142 °C. Moreover, in data set [1] (setting [3]), the inhibition at 1 µM was determined as 34.1 ± 10.1%. For the same compound, in data set [2] (setting [4]), the inhibition at 1 µM stood at 20.9 ± 10.1%.

In the case of `C=C1C[C@@]2(C)C(=CC1=O)CC[C@H]1[C@@H]3CC[C@H](C(=O)N4CCCCC4)[C@@]3(C)CC[C@@H]12` [Compound 8b, 2-methylene-17β-(piperidine-1-carbonyl)-androst-4-ene-3-one], the inhibition at 1 µM in data set [1] (setting [3]) came to 35.8 ± 9.58%; in data set [2] (setting [4]) it was 21.2 ± 1.31%.

With `COc1ccc(CCNC(=O)[C@H]2CCC3C4CCC5=CC(=O)/C(=C\O)C[C@]5(C)C4CC[C@@]32C)cc1OC` (stereo partly drawn) [Compound 7d, 2-hydroxymethylene-17β-(N-(3,4-dimethoxyphenethyl)-carboxamide)-androst-4-ene-3-one], the melting point fell in the range of 121 to 129 °C. In addition, the IC50 in data set [1] stood at 580 ± 60 nM. In addition, the inhibition at 1 µM in data set [1] (setting [7]) was 66.4 ± 4.37%. Moreover, in data set [2] (setting [6]), the inhibition at 1 µM amounted to 69 ± 9.3%.

Regarding `CCN(CC)C(=O)[C@H]1CCC2C3CCC4=Cc5n[nH]cc5C[C@]4(C)C3CC[C@@]21C` (stereo partly drawn) [Compound 9c, 17β-(N,N-diethy-carboxamide)-androst[3,2-c]pyrazole-4-ene], the melting point was in the range of 111 to 118 °C. Further, the inhibition at 1 µM in data set [1] (setting [3]) stood at 68 ± 12%. Moreover, the IC50 in data set [1] (setting [5]) is 520 ± 60 nM. For the same compound, in data set [2] (setting [4]), the inhibition at 1 µM was 63.6 ± 12.5%.

In turn, `C=C1C[C@@]2(C)C(=CC1=O)CCC1C2CC[C@@]2(C)C1CC[C@@H]2C(=O)N(CC)CC` (stereo partly drawn) [Compound 8c, 2-methylene-17β-(N,N-diethy-carboxamide)-androst-4-ene-3-one] came in with a melting point of 98 to 105 °C. In addition, the inhibition at 1 µM in data set [1] (setting [3]) worked out at 25.8 ± 4.22%. For the same compound, the inhibition at 1 µM in data set [2] (setting [4]) was 18.3 ± 4.61%.

As to `CC(C)CNC(=O)[C@H]1CCC2C3CCC4=Cc5n[nH]cc5C[C@]4(C)C3CC[C@@]21C` (stereo partly drawn) [Compound 9a, 17β-(N-isobutyl-carboxamide)-androst[3,2-c]pyrazole-4-ene], the inhibition at 1 µM worked out at 53.1 ± 9.71% in data set [1] (setting [3]) and 48.7 ± 3.08% in data set [2] (setting [4]).
